Experiments:
[1] = tested on: STZ rat model of diabetic neuropathy; experiment: Streptozotocin (STZ)-induced diabetic neuropathy, Von Frey allodynia; format: in vivo; conditions: 150 mg/kg i.p., 2 hours before testing, all treatment days, vs pretreatment and vehicle, p<0.01
Source text: Peripheral neuropathy, a major complication of diabetes, often results in spontaneous pain or the perception of pain from contact with a normally non-noxious stimulus. Such neuropathic pain is experienced by 20-24% of diabetic patients, or approximately 30 million people worldwide (Schmader, 2002). The streptozotocin (STZ)-induced diabetes model in rats provides a means to evaluate the efficacy of test compounds that offer therapeutic potential for peripheral neuropathy and to understand their putative mechanism of action. In this model, a single injection of STZ, an antibiotic that mimics clinical diabetes by causing irreversible damage to the pancreatic β and α-cells leads to chronic hyperglycemia, nerve dysfunction and pain sensitivity. The current study utilizes the STZ rat model of diabetic neuropathy to investigate the effects of (2S,3R)—N-2-((3-pyridinyl)methyl)-1-azabicyclo[2.2.2]oct-3-yl)-3,5-difluorobenzamide on mechanical allodynia, an assessment of pain.
Diabetes was induced by a 0.5 ml injection of streptozotocin (60 mg/kg) dissolved in citrate buffer (pH) into the tail vein of each rat The development of diabetes was confirmed by measuring the blood glucose levels (BGL) of all animals on study day 3 (BGL>300 mg/dL). […] These animals were tested again for their BGL at study day 23.
(2S,3R)—N-2-((3-pyridinyl)methyl)-1-azabicyclo[2.2.2]oct-3-yl)-3,5-difluorobenzamide (0.1, 1 or 10 mg/kg p.o.) was administered as a solution of the hydrochloride salt in water once daily starting on study day 14 or study day 16 and continuing through study day 21 or 23, respectively. The control article gabapentin (in 0.9% saline, 150 mg/kg i.p.) was only administered on allodynia test days. Test item, vehicle or control article administration was based on evaluation of allodynia on study day 14. If allodynia was not present on study day 14, the animal was evaluated again at study day 16. Pain response was measured either on study days 14 and 21 or 16 and 23, 30 minutes after Test Item administration.
For the allodynia assessments, Von Frey filaments were used according to the methods of Chaplan and colleagues (1994). Briefly, the rats were placed in an enclosure and positioned on a metal mesh surface, but allowed to move freely. The rats' cabins were covered with red cellophane to diminish environmental distributions. The test began after cessation of exploratory behavior.
When the tip of a Von Frey fiber of given length and diameter was pressed against the skin at right angles, the force of application increases as long as the researcher continued to advance the probe until the fiber bent. After the fiber bent, the probe was advanced, causing the fiber to bend more, but without additional force being applied. The animal would indicate sensation by pulling back its paw. In the absence of a paw withdrawal response to the initially selected filament, a stronger stimulus was presented; in the event of paw withdrawal, the next weaker stimulus was chosen. In this fashion, the resulting pattern of positive and negative responses was used to determine the paw withdrawal threshold.
The set of Von Frey monofilaments provide an approximate logarithmic scale of actual force and a linear scale of perceived intensity. Below is a table showing the force (g) and its corresponding size of monofilaments.
All normally distributed data are presented as means±SEM, as well as the animals' individual values followed by a student T-test (Software: Microsoft® Excel). A p value <0.05 is considered to represent a significant difference. Due to the non-normal distribution of the allodynia data, descriptions of those data are provided as both mean (±SEM) and median values in order to represent their imprecise nature and skewed distribution.

[2] = Aqueous solubility of salts (salt screen); format: physicochemical; conditions: target 10 mg/ml at 25° C., unbuffered
CD-1 mice = experiment: Formalin test; format: in vivo, mouse; conditions: 5 mg/kg s.c., positive control
Method: One of the most clinically predictive screening models of acute pain is the formalin test in mice (LeBars et al., 2001). In this paradigm, originally described by Dubuisson and Dennis (1977), a diluted solution of formalin is injected into the plantar surface of a subject's (rat or mouse) rear paw and nociceptive behavior is measured; for instance, licking and biting of the injected paw. Two phases of the response are observed. First an early phase, starting immediately after injection and lasting 5-10 minutes, followed by a late phase that can last from 15-60 minutes after injection. Nociceptive response is attributed to direct chemical stimulation in the early phase and inflammation/persistent pain in the later phase (Dubuisson and Dennis, 1977). The response in the late phase also depends on changes in processing of information in the spinal cord due to the afferent barrage during the early phase (Coderre et al., 1990). An advantage of the test is that two different types of stimuli are employed in the same assay to study the possibility of varying analgesic effects of a drug in the two phases of the test (Tjølsen and Hole, 1997).
Subjects (adult male CD-1 mice (Charles River, Raleigh, N.C.) weighing approximately 20-25 grams) were removed from their home cage and weighed, then placed in a clear Plexiglas™ observation box for an acclimation period of 20-30 minutes. Mice were then removed from the observation chambers and (2S,3R)—N-2-((3-pyridinyl)methyl)-1-azabicyclo[2.2.2]oct-3-yl)-3,5-difluorobenzamide (as the hydrochloride salt in 0.9% saline) (1, 3 or 10 mg/kg s.c. (calculated with respect to the free base)), morphine (5 mg/kg; s.c.) or 0.9% saline vehicle was administered subcutaneously in a volume of 1 mL/kg. Mice were then returned to the chamber for the predetermined pretreatment time of 30 minutes for (2S,3R)—N-2-((3-pyridinyl)methyl)-1-azabicyclo[2.2.2]oct-3-yl)-3,5-difluorobenzamide and morphine.
After the test compound pretreatment time, the animals were injected with formalin solution (2.5% derived as a 1:4 dilution of 10% phosphate buffered formalin solution (Sigma):distilled water). The subject's assigned paw was gasped gently and formalin solution was injected into the paw intra-dermally in the middle on the dorsal side. Once injected, the subject was immediately returned to its observation chamber and a timer was started to mark the beginning of Phase I. Each subject was videotaped for the entire 40-minute session. […] The time spent licking during that 1 min interval was recorded, and the presence or absence of paw favoring was noted.
For data analyses, phase I of the test was defined as 0 to 5 minutes after formalin injection, and phase II was defined as 20 to 40 minutes after formalin injection. The time spent licking during the 1 minute intervals during those time frames was recorded and graphed as mean±S.E.M. For comparisons across treatment groups, 1-way analyses of variance (ANOVAs) were performed for each phase of the session with treatment as the […] variable. Post-hoc analyses were performed when appropriate to determine specific group differences.

Sprague-Dawley rats = experiment: Complete Freund's adjuvant (CFA)-induced thermal hyperalgesia; format: in vivo, rat; conditions: 3 mg/kg s.c., 1 hour after dosing, reference standard
Method: Injection of complete Freund's adjuvant (CFA) in rats is commonly used to evaluate compounds with potential for use as drugs in treatment of mono-arthritis (osteo-arthritis) and other inflammatory conditions. Signs of hyperalgesia develop within 24 h (Schaible and Grubb, 1993).
(2S,3R)—N-2-((3-pyridinyl)methyl)-1-azabicyclo[2.2.2]oct-3-yl)-3,5-difluorobenzamide was evaluated for possible analgesia effect in the CFA-induced thermal hyperalgesia test in rats using methods similar to those described by Walker and colleagues (2003). Briefly, adult male Sprague-Dawley rats (BioLasco, Taiwan) weighing 180±20 g on receipt were randomly assigned to treatment groups of n=8 per group. Animals each received a sub plantar injection (0.1 mL) of CFA (DIFCO, 264010; 0.1% solution) to the right hind paw at 24 h prior to experimental testing. Thermal hyperalgesia was tested using a Paw/Tail stimulator analgesia meter (IITC Model-336G, IITC, USA) with a thermally regulated glass floor set at 30° C. […] The time required for the animal to withdraw the paw from the thermal stimulus was automatically recorded. […]
Twenty-four hours after CFA injection, subjects were pre-selected (for clear presence of thermal hyperalgesia) for experimentation only if the latency to withdrawal was less than 75% of the baseline. […] The post-treatment level of thermal hyperalgesia was then measured at 60 minutes post-treatment. […]

db/db mouse = experiment: Murine model of type 2 diabetes mellitus (db/db); format: in vivo; conditions: MLA 3 mg/kg daily via gavage with Compound A 1.0 mg/kg, obese mice
Source text: The db/db mouse, a well established model of type 2 diabetes mellitus, is a leptin-deficient mutant that expresses an obese phenotype and also commonly expresses metabolic symptoms including hyperglycemia, hyperlipidemia and hyperinsulinemia (Halaas et al., 1995 and Lee et al., 1996). This experimental animal model of diabetes was employed in a study designed to determine the effects of (2S,3R)—N-2-((3-pyridinyl)methyl)-1-azabicyclo[2.2.2]oct-3-yl)-3,5-difluorobenzamide on body mass and several additional metabolic parameters.
In this study, (2S,3R)—N-2-((3-pyridinyl)methyl)-1-azabicyclo[2.2.2]oct-3-yl)-3,5-difluorobenzamide was repeatedly administered orally (via gavage) at 1.0 mg/kg once daily starting from the age of approximately 3 weeks and continuing throughout the 7-week study. Nondiabetic heterozygote littermate mice (db/+; designated “Db”) were used as controls. Body weight and food intake were determined twice weekly. The α7 antagonist methyllycaconitine (MLA) was also given concurrently via gavage at 3 mg/kg daily to selected cohorts of db/db (designated “db”) or db/+mice. At the end of the 7-week dosing regimen, total growth rates (overall body weight gain) and average daily food intake were calculated. In addition, glucose levels were assessed in mice fasted overnight. Furthermore, blood sample analytes from mice fasted overnight were collected for measurements of tumor necrosis factor-a (TNF-α), triglycerides and glycosylated hemoglobin (HbA1c). All data are expressed as mean±SEM. For each parameter investigated, differences among all groups were compared by one-way ANOVA with post-hoc Neuman-Keuls multiple comparison test.

[3] = tested on: ovalbumin-sensitized mice; experiment: Airway hyperresponsiveness (Penh) and BALF cell counts; format: in vivo, mouse
Method: Using the method of Hamelmann et al, (2S,3R)—N-2-((3-pyridinyl)methyl)-1-azabicyclo[2.2.2]oct-3-yl)-3,5-difluorobenzamide was evaluated for possible inhibition of airway hyper-responsiveness in mice. Briefly, ovalbumin (OVA)-sensitized animals, 12 animals per group, were challenged by nasal inhalation with aerosolized 5% OVA for 25 min on days 21, 23, and 25. The mice were treated with vehicle or (2S,3R)—N-2-((3-pyridinyl)methyl)-1-azabicyclo[2.2.2]oct-3-yl)-3,5-difluorobenzamide subcutaneously (s.c.) twice daily from day 21 to day 26 or once daily intratracheally (i.t.), preceding ovalbumin aerosol challenge by 30 min on days 21, 23 and 25 as well as methacholine challenge or bronchoalveolar lavage fluids (BALF) harvest on day 26. Dexamethasone, the reference standard, was administered at 3 mg/kg orally (p.o.) once daily 60 min before OVA challenge on day 21, 23 and 25 and 60 min before methacholine provocation or BALF harvest on day 26. Noninvasive measurements of airway responsiveness were performed by using whole body plethysmography, in which increases in enhanced pause (Penh) serve as an index of airway obstruction. Responses to inhaled methacholine were measured and calculated as percentage of respective baseline values. Unpaired Students t-test was used for comparison between the vehicle control and the sham group; one-way ANOVA and Dunnett's post-hoc analyses were applied for comparison between the vehicle control and treated groups. Statistical significance is considered at P<0.05.

NCC1(CC(=O)O)CCCCC1 [gabapentin, reference compound]
tactile allodynia [1]: reversed the tactile allodynia significantly

O=C(N[C@@H]1C2CCN(CC2)[C@H]1Cc1cccnc1)c1cc(F)cc(F)c1.O=C(N[C@@H]1C2CCN(CC2)[C@H]1Cc1cccnc1)c1cc(F)cc(F)c1.O=C(O)c1ccc(O)cc1 [4-Hydroxybenzoate mono salt]
Aqueous Solubility [2]: >10000 µg/mL

CN1CC[C@]23c4c5ccc(O)c4O[C@H]2[C@@H](O)C=C[C@H]3[C@H]1C5 [morphine, reference compound]
efficacy, phase I (CD-1 mice): efficacious
efficacy, phase II (CD-1 mice): efficacious
analgesic effect on CFA-induced thermal hyperalgesia (Sprague-Dawley rats): significant analgesic activity

CCN1C[C@]2(COC(=O)c3ccccc3N3C(=O)C[C@H](C)C3=O)CC[C@H](OC)[C@@]34[C@@H]5C[C@H]6[C@H](OC)[C@@H]5[C@](O)(C[C@@H]6OC)[C@@](O)([C@@H](OC)[C@H]23)[C@@H]14 [MLA, methyllycaconitine, reference compound]
effect of MLA co-administration on the inhibition of fasting plasma glucose (db/db mouse): not reversed
effect of MLA co-administration on the reduced food consumption (db/db mouse): failed to show the reduced daily average food consumption
effect of MLA co-administration on the reduced weight gain (db/db mouse): failed to show the reduced weight gain
effect of MLA co-administration on the reduction in glycosylated HbA1c (db/db mouse): attenuated
effect of MLA co-administration on the reduction in triglycerides (db/db mouse): not attenuated
effect of MLA co-administration on the reduction of TNF alpha (db/db mouse): inhibited

Cl.O=C(N[C@@H]1C2CCN(CC2)[C@H]1Cc1cccnc1)c1cc(F)cc(F)c1 [Hydrochloride mono salts]
Aqueous Solubility [2]: >10000 µg/mL

O=C(N[C@@H]1C2CCN(CC2)[C@H]1Cc1cccnc1)c1cc(F)cc(F)c1.O=C(O)/C=C/C(=O)O [Fumarate mono salt]
Aqueous Solubility [2]: >10000 µg/mL

C[C@@H]1C[C@H]2[C@@H]3CCC4=CC(=O)C=C[C@]4(C)[C@@]3(F)[C@@H](O)C[C@]2(C)[C@@]1(O)C(=O)CO [Dexamethasone, reference compound]
methacholine (10 and 30 mg/mL)-induced increase in Penh values ([3]; 3 mg/kg PO once daily, reference standard): significant inhibition
increase in total WBC, neutrophils, lymphocytes, monocytes and eosinophils in BALF ([3]; 3 mg/kg p.o. once daily): inhibited significantly

O=C(N[C@@H]1C2CCN(CC2)[C@H]1Cc1cccnc1)c1cc(F)cc(F)c1.O=P(O)(O)O [Phosphate mono salts]
Aqueous Solubility [2]: >10000 µg/mL
